Data as given in patent US20080227823A1, “AMIDE DERIVATIVES AS CALCIUM CHANNEL BLOCKERS” (priority 2007, published 2008).

Tests used:
[1] = target: T1, human α1H T-type channels (Homo sapiens, UniProt O95180); assay: T-type calcium channel block, whole cell patch clamp in HEK cells; type: cell-based; settings: mainly non-inactivated protocol
T1 construct: expressed in transfected cells; host or cells: HEK 293
Procedure: (§1) T-type calcium channel blocking activity was assayed in human embryonic kidney cells, HEK 293, stably transfected with the T-type calcium channel subunits. Briefly, cells were cultured in Dulbecco's modified eagle medium (DMEM) supplemented with 10% fetal bovine serum, 200 U/ml penicillin and 0.2 mg/ml streptomycin at 37° C. with 5% CO2. At 85% confluency cells were split with 0.25% trypsin/1 mM EDTA and plated at 10% confluency on glass coverslips. At 12 hours the medium was replaced and the cells stably transfected using a standard calcium phosphate protocol and the appropriate calcium channel cDNA's. Fresh DMEM was supplied and the cells transferred to 28° C./5% CO2. Cells were incubated for 1 to 2 days prior to whole cell recording.
(§2) Standard patch-clamp techniques were employed to identify blockers of T-type currents. Briefly, previously described HEK cell lines stably expressing human α1G, α1H and α1I T-type channels were used for all the recordings (passage #: 4-20, 37° C., 5% CO2). Whole cell patch clamp experiments were performed using an Axopatch 200B amplifier (Axon Instruments, Burlingame, Calif.) linked to a personal computer equipped with pCLAMP software. Data were analyzed using Clampfit (Axon Instruments) and SigmaPlot 4.0 (Jandel Scientific). To obtain T-type currents, plastic dishes containing semi-confluent cells were positioned on the stage of a ZEISS AXIOVERT S100 microscope after replacing the culture medium with external solution (see below). Whole-cell patches were obtained using pipettes (borosilicate glass with filament, O.D.: 1.5 mm, I.D.: 0.86 mm, 10 cm length), fabricated on a SUTTER P-97 puller with resistance values of ˜5 MΩ (see below for internal solution).
(§3) T-type currents were reliably obtained by using two voltage protocols: • (1) “non-inactivating”, and • (2) “inactivation”
(§4) In the non-inactivating protocol, the holding potential is set at −110 mV and with a pre-pulse at −100 mV for 1 second prior to the test pulse at −40 mV for 50 ms. In the inactivation protocol, the pre-pulse is at approximately −85 mV for 1 second, which inactivates about 15% of the T-type channels.
(§5) Test compounds were dissolved in external solution, 0.1-0.01% DMSO. After 10 min rest, they were applied by gravity close to the cell using a WPI microfil tubing. The “non-inactivated” pre-pulse was used to examine the resting block of a compound. The “inactivated” protocol was employed to study voltage-dependent block. However, the initial data shown below were mainly obtained using the non-inactivated protocol only. Kd values are shown for various compounds of the invention in Table 4 measured at 1 μM for the drug of interest except for compound 18 which was measured at 200 nM.

[2] = target: T2, human α1I T-type channels (Homo sapiens, UniProt Q9P0X4); assay: as above; type: cell-based; settings: mainly non-inactivated protocol
T2 construct: expressed in transfected cells; host or cells: HEK 293
Procedure: as §1, §2, §3, §4, §5

[3] = target: T3, human α1G T-type channels (Homo sapiens, UniProt O43497); assay: as above; type: cell-based; settings: mainly non-inactivated protocol
T3 construct: expressed in transfected cells; host or cells: HEK 293
Procedure: as §1, §2, §3, §4, §5

[4] = spinal nerve ligation model of neuropathic pain in rats; cited from earlier work
[5] = tested on: T-type over L-type channels; settings: cited from earlier work

T1 sequence (O95180 whole entry): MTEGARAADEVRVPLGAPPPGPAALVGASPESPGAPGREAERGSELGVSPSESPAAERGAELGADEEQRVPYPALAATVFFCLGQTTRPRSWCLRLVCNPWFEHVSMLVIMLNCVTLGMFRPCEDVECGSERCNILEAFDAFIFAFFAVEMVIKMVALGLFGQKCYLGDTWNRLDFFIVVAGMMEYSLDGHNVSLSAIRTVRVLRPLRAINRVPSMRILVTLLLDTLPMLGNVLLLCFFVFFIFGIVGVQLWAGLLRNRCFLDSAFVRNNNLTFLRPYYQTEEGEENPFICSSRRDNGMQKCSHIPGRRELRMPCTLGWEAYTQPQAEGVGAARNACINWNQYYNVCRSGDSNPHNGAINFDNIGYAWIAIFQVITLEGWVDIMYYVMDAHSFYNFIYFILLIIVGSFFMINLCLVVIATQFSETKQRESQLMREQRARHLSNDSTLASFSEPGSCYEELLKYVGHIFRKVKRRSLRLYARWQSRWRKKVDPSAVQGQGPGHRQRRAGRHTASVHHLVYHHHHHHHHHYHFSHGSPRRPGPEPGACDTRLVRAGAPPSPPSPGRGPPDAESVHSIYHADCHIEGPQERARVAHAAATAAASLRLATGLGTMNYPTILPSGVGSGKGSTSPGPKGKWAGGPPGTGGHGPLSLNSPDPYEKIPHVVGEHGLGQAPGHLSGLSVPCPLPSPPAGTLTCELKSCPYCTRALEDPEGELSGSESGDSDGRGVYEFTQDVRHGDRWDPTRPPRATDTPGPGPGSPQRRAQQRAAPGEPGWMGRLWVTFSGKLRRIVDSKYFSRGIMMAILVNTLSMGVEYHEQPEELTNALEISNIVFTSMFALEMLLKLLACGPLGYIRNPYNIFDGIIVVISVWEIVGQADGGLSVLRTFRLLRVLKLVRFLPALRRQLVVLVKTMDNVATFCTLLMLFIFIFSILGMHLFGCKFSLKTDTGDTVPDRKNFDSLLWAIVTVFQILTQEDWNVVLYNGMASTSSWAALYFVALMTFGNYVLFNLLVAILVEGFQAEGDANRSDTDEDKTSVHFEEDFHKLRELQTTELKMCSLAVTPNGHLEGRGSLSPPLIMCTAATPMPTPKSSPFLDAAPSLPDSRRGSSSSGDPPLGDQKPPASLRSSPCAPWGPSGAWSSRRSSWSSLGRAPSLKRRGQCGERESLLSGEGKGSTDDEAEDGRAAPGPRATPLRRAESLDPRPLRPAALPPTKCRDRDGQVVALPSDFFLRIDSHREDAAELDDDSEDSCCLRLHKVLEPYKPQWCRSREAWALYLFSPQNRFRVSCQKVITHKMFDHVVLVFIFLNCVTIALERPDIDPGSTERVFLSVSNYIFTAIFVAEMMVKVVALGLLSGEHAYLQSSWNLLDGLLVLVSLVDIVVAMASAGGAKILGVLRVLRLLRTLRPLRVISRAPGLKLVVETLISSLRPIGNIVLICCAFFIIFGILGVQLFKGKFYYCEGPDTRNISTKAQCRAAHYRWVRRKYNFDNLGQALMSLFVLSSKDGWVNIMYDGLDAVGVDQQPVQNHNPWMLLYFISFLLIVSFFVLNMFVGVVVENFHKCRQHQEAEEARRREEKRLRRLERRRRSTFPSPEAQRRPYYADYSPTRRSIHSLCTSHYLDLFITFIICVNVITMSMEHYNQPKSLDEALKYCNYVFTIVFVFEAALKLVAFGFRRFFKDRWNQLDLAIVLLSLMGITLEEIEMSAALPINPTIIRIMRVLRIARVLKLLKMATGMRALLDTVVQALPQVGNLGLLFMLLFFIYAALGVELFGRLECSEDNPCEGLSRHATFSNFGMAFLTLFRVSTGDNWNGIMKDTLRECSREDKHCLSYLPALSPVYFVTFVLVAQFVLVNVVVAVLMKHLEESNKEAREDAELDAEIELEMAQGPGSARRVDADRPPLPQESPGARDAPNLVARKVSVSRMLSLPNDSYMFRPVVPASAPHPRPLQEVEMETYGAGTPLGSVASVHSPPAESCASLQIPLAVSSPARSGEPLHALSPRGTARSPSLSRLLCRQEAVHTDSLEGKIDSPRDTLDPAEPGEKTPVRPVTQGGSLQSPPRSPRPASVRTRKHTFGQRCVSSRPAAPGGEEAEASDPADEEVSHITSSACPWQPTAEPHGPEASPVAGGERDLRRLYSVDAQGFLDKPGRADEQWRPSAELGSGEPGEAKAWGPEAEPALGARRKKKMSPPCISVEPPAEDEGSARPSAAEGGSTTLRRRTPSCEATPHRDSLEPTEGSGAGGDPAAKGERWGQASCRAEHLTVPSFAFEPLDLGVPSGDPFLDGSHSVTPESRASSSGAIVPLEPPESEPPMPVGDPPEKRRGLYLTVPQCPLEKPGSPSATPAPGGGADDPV
T2 sequence (Q9P0X4 whole entry): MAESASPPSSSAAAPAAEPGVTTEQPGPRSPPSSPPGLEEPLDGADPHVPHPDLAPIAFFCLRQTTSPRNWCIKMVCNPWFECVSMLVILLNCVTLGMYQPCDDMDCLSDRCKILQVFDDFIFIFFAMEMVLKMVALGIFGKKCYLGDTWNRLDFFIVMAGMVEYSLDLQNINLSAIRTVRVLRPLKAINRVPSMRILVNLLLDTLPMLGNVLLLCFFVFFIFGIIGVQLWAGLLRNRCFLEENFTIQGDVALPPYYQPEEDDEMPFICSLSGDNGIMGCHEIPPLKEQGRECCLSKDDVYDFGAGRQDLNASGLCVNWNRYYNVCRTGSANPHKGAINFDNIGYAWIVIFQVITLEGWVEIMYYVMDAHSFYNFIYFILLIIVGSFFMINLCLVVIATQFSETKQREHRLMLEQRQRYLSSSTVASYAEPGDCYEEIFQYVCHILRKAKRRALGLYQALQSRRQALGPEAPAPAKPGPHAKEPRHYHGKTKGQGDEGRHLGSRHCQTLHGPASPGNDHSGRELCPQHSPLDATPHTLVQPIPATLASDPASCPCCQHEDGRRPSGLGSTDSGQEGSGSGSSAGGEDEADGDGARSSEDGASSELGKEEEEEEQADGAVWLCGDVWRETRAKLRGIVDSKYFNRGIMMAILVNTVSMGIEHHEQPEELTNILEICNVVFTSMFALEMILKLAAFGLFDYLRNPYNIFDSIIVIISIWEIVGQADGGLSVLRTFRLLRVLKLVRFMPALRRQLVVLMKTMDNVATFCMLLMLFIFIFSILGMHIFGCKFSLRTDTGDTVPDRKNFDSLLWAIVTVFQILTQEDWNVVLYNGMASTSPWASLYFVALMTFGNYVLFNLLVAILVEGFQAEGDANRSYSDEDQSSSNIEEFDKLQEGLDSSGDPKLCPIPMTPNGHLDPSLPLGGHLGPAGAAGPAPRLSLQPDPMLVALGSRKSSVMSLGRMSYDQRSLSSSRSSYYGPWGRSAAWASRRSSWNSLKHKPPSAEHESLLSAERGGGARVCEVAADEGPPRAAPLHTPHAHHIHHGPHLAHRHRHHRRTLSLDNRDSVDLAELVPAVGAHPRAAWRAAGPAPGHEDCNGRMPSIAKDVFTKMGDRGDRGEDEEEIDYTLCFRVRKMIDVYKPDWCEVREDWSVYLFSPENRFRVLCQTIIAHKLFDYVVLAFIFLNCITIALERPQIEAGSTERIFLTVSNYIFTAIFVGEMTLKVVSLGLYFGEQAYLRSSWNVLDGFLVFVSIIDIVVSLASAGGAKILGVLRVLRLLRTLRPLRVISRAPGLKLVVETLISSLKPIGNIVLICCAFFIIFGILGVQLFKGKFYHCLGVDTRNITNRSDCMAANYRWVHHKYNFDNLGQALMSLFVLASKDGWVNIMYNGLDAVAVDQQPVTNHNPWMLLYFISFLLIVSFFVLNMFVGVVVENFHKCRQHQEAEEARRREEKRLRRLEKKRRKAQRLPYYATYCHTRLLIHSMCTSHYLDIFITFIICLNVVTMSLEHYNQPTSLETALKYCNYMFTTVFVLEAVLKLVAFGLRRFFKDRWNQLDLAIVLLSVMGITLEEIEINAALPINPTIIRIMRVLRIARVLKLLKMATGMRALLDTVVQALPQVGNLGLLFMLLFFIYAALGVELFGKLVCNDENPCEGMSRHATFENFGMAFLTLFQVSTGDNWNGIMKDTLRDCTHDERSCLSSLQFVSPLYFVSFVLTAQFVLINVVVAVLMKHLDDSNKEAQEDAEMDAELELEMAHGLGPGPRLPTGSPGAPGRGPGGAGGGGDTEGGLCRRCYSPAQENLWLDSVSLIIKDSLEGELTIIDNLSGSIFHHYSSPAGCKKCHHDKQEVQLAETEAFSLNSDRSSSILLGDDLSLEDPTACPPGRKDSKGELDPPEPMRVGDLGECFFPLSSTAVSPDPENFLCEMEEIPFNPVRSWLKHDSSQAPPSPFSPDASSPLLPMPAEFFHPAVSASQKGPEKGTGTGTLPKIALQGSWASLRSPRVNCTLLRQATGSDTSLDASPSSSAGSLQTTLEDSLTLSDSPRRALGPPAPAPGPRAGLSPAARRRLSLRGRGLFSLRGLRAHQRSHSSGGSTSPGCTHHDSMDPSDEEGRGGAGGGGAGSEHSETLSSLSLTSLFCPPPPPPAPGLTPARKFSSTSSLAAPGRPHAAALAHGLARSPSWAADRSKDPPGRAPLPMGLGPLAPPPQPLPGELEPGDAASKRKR

Compound | Kd ([1]; measured at 1 μM drug) [nM] | Kd ([2]; measured at 1 μM drug) [nM] | Kd ([3]; measured at 1 μM drug) [nM] | further results
O=C(/C=C/c1ccc(F)c(Br)c1)NC1(C(=O)NCCc2c[nH]c3ccc(F)cc23)CCNCC1 [Compound 1] | 470 | 180 | 220 | 
O=C(/C=C/c1ccc(F)c(Br)c1)NC1(C(=O)NCCc2c[nH]c3ccccc23)CCNCC1 [Compound 2, (E)-N-(2-(1H-indol-3-yl)ethyl)-4-(3-(3-bromo-4-fluorophenyl)acrylamido)piperidine-4-carboxamide] | 410 | 30 | 30 | 
O=C(/C=C/c1ccc(F)c(F)c1)NC1(C(=O)NCCc2c[nH]c3ccc(F)cc23)CCNCC1 [Compound 7, (E)-4-(3-(3,4-difluorophenyl)acrylamido)-N-(2-(5-fluoro-1H-indol-3-yl)ethyl)piperidine-4-carboxamide] | 137000 | 110 | 130 | 
O=C(/C=C/c1ccc(F)c(Br)c1)NC1(C(=O)NCCc2c[nH]c3ccc(F)cc23)CCCCC1 [Compound 12, (E)-1-(3-(3-bromo-4-fluorophenyl)acrylamido)-N-(2-(5-fluoro-1H-indol-3-yl)ethyl)cyclohexanecarboxamide] | 1800 | 280 | 120 | 
O=C(/C=C/c1ccc(F)c(Br)c1)NC1(C(=O)NCCc2c[nH]c3ccc(F)cc23)CCCC1 [Compound 13, (E)-1-(3-(3-bromo-4-fluorophenyl)acrylamido)-N-(2-(5-fluoro-1H-indol-3-yl)ethyl)cyclopentanecarboxamide] | 1790 | 390 | 140 | 
O=C(/C=C/c1ccc(F)c(Br)c1)NC1(C(=O)NCCc2c[nH]c3ccc(F)cc23)CC1 [Compound 14, (E)-1-(3-(3-bromo-4-fluorophenyl)acrylamido)-N-(2-(5-fluoro-1H-indol-3-yl)ethyl)cyclopropanecarboxamide] | 12000 | 460 | 290 | 
O=C(/C=C/c1ccc(F)c(Br)c1)N[C@H](C(=O)NCCc1c[nH]c2ccc(F)cc12)c1ccccc1 [Compound 17, (S,E)-3-(3-bromo-4-fluorophenyl)-N-(2-(2-(5-fluoro-1H-indol-3-yl)ethylamino)-2-oxo-1-phenylethyl)acrylamide] | 940 | 170 | 100 | 
O=C(/C=C/c1ccc(F)c(Br)c1)N[C@@H](C(=O)NCCc1c[nH]c2ccc(F)cc12)c1ccccc1 [Compound 18, (R,E)-3-(3-bromo-4-fluorophenyl)-N-(2-(2-(5-fluoro-1H-indol-3-yl)ethylamino)-2-oxo-1-phenylethyl)acrylamide] |  |  |  | Kd ([1]; measured at 200 nM drug): 690 nM; Kd ([2]; measured at 200 nM drug): 380 nM; Kd ([3]; measured at 200 nM drug): 70 nM
CN1CCC(NC(=O)/C=C/c2ccc(F)c(Br)c2)(C(=O)NCCc2c[nH]c3ccc(F)cc23)CC1 [Compound 22] | 490 | 330 | 100 | 
COC(=O)N1CCC(NC(=O)/C=C/c2ccc(F)c(Br)c2)(C(=O)NCCc2c[nH]c3ccc(F)cc23)CC1 [Compound 23, (E)-methyl 4-(3-(3-bromo-4-fluorophenyl)acrylamido)-4-(2-(5-fluoro-1H-indol-3-yl)ethylcarbamoyl)piperidine-1-carboxylate] |  | 870 | 790 | 
NCC(=O)N1CCC(NC(=O)/C=C/c2ccc(F)c(Br)c2)(C(=O)NCCc2c[nH]c3ccc(F)cc23)CC1 [Compound 24, (E)-1-(2-aminoacetyl)-4-(3-(3-bromo-4-fluorophenyl)acrylamido)-N-(2-(5-fluoro-1H-indol-3-yl)ethyl)piperidine-4-carboxamide] | 1450 | 440 | 180 | 
O=C(/C=C/c1ccc(F)c(Br)c1)NC1(C(=O)NCCc2c[nH]c3ccc(F)cc23)CCN(C(=O)C(F)(F)F)CC1 [Compound 27, (E)-4-(3-(3-bromo-4-fluorophenyl)acrylamido)-N-(2-(5-fluoro-1H-indol-3-yl)ethyl)-1-(2,2,2-trifluoroacetyl) piperidine-4-carboxamide] | 840 | 210 | 150 | 
O=C(/C=C/c1ccc(F)cc1)NC1(C(=O)Nc2cc(C(F)(F)F)cc(C(F)(F)F)c2)CCNCC1 [Compound 32, (E)-N-(3,5-bis(trifluoromethyl)phenyl)-4-(3-(4-fluorophenyl)acrylamido)piperidine-4-carboxamide] | 420 | 50 | 50 | 
COCC(=O)O[C@]1(CCN(C)CCCc2nc3ccccc3[nH]2)CCc2cc(F)ccc2[C@@H]1C(C)C [Mibefradil] |  |  |  | anti-hyperalgesic activity [4]: anti-hyperalgesic activity; selective for T-type over L-type channels [5]: 10-30 fold
CCC1(C)CC(=O)NC1=O (centres unmarked) [ethosuximide] |  |  |  | anti-hyperalgesic activity [4]: anti-hyperalgesic activity
